Like-named read-outs stand apart in the source and are kept apart here. Bridge positions count the residues as written; N and C are the ends. Square brackets hold non-standard residues; d marks the D form. Peptide text beside a SMILES is read from it. Trp(1-Me) = Cn1cc(C[C@H](N)C(=O)O)c2ccccc21; NMeI = CC[C@H](C)[C@H](NC)C(=O)O; Sar = CNCC(=O)O
Target: T1, C3b (Homo sapiens, UniProt P01024)
T1 construct: the α’NT, MG6^α−8, anchor, and C-terminal complement (CTC) domains of the α-chain that are all shared between C3c and C3b; purchased Complement Technology (Tyler, TX, USA)
T1 sequence (P01024 23-667 limits assumed): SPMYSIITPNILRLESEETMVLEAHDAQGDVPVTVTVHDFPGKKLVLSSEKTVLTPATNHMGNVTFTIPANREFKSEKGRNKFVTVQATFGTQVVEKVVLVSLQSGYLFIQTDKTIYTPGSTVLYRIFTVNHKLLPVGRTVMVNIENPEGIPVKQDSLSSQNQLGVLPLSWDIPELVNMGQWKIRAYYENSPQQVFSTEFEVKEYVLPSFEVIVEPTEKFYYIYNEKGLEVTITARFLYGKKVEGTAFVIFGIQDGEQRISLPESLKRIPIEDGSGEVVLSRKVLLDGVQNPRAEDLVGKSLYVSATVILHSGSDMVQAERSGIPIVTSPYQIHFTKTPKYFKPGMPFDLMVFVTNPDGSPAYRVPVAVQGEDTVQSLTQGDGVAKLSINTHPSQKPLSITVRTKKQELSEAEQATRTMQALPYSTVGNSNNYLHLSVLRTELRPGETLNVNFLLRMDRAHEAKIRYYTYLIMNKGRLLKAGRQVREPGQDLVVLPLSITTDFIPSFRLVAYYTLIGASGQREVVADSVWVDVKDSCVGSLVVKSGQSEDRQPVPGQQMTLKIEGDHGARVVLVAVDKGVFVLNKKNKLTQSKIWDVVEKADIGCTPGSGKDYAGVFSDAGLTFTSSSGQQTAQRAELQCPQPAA
T1 sequence (P01024 749-1663 limits assumed): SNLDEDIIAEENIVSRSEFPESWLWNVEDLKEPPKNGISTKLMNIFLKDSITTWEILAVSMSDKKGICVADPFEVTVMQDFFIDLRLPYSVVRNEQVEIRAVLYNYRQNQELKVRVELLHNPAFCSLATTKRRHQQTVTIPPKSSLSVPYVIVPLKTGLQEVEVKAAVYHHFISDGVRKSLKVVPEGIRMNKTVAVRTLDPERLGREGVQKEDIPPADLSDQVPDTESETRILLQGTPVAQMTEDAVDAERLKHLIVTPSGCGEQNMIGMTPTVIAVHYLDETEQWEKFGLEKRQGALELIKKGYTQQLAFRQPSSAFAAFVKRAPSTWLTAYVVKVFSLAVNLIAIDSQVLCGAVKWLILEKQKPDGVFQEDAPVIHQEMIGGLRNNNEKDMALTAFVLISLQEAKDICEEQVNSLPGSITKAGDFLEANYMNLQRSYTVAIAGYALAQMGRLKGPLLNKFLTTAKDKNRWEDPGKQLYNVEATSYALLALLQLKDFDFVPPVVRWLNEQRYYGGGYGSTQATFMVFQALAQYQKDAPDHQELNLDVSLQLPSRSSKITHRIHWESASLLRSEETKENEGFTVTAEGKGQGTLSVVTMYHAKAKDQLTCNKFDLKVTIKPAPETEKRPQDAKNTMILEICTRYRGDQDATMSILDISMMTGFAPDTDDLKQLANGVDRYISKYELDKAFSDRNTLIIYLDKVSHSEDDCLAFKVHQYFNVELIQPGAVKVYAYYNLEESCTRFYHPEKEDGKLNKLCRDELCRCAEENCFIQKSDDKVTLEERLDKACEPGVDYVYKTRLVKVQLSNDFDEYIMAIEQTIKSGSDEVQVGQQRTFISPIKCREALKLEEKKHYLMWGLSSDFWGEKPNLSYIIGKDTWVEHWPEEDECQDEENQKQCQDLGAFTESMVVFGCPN
Assay: SPR kinetic binding studies on immobilized C3b
Description: All compstatin analogues were characterized concerning affinity and kinetic profiles by surface plasmon resonance (SPR) using a Biacore T200 instrument (Cytiva, Piscataway, USA). Experiments were run at 25 °C in HBST buffer (10 mM HEPES, 150 mM NaCl, 0.05% Tween-20, pH 7.4). C3b was immobilized on a carboxymethyl dextran hydrogel chip (CMD200; XanTec, Düsseldorf, Germany) using standard amine coupling in sodium acetate buffer pH 4.5 at a flow rate of 10 µl/min. Immobilization densities of 8000 and 4000 resonance units (RU) were achieved on separate flow cells. A reference flow cell was activated with the same method (NHS/EDC). All active sites were inactivated and blocked with ethanolamine. A single cycle approach at a flow rate of 30 µl/min was used for kinetic analysis by injecting five increasing concentrations of each compound (0.5–40 nM) consecutively without regeneration in-between injections. Individual injections within a cycle were 120 s long with a 60 sec dissociation phase between injections. After the highest concentration of each derivative, a dissociation period of 6,000–14,400 sec was added to ensure complete dissociation in absence of suitable regeneration method. […] Signals from the reference cell from an ensemble of buffer blank injections were subtracted to correct for buffer effects and injection artefacts. Kinetic data was processed with the Biacore T200 Software (version 3.1; Cytiva) using a single-cycle evaluation setup by global fitting each data set to a 1:1 Langmuir binding model. Association and dissociation rate constants (ka and kd, respectively) were fitted, and the equilibration constant KD was calculated based on the following equation: KD = kd/ka. Each assay was performed at least twice and in duplicate injections.

[1] = Suppl. Fig. 7e, Cp40 analogs at position 5, three SPR experiments
[2] = Table 1, amine-reactive immobilized C3b, 25 °C, average±SD of three independent SPR experiments, read-out: KD
[3] = pH 7.4, read-out: ka, Dataset 1
[4] = pH 7.4, read-out: ka, Dataset 3
[5] = source data of Table 1, single SPR dataset 1, read-out: KD, Dataset 1
[6] = source data of Table 1, single SPR dataset 2, read-out: KD, Dataset 2
[7] = source data of Table 1, single SPR dataset 3, read-out: KD, Dataset 3
[8] = pH 7.4, read-out: ka, Dataset 2

SMILES	kd [1]	kon (pH 7.4, read-out: ka)	Kd [2]	kon [3]	kon [4]	Kd [5]	Kd [6]	Kd [7]	kon [8]	kd (Table 1, amine-reactive immobilized C3b, 25 °C, average±SD of three independent SPR experiments)	kd, Dataset 1 (source data of Table 1, single SPR dataset 1)	kd, Dataset 2 (source data of Table 1, single SPR dataset 2)	kd, Dataset 3 (source data of Table 1, single SPR dataset 3)
CC[C@H](C)[C@H](NC(=O)[C@H](N)Cc1ccc(O)cc1)C(=O)N[C@H]1CSSC[C@@H](C(=O)N(C)[C@H](C(N)=O)[C@@H](C)CC)NC(=O)[C@H](CCCNC(=N)N)NC(=O)[C@H](Cc2c[nH]cn2)NC(=O)[C@H](C)NC(=O)CN(C)C(=O)[C@H](Cc2c[nH]c3ccccc23)NC(=O)[C@H](CC(=O)O)NC(=O)[C@H](CCC(N)=O)NC(=O)[C@H](Cc2cn(CCC(C)C)c3ccccc23)NC(=O)[C@H](C(C)C)NC1=O [1(3Me)BuW]	0.7 ± 0.0 10-3 s-1	200000 M⁻¹ s⁻¹											
CC[C@H](C)[C@H](NC(=O)[C@H](C)N)C(=O)N[C@H]1CSSC[C@@H](C(=O)N(C)[C@H](C(N)=O)[C@@H](C)CC)NC(=O)[C@H](CCCNC(=N)N)NC(=O)[C@H](Cc2c[nH]cn2)NC(=O)[C@H](C)NC(=O)CN(C)C(=O)[C@H](Cc2c[nH]c3ccccc23)NC(=O)[C@H](CC(=O)O)NC(=O)[C@H](CCC(N)=O)NC(=O)[C@H](Cc2cn(C)c3ccccc23)NC(=O)[C@H](C(C)C)NC1=O [Cp40 y1A] (H-AICV[Trp(1-Me)]QDW[Sar]AHRC[NMeI]-NH2; disulfide 3-13)		400000 M⁻¹ s⁻¹	3.8 ± 0.5 nM	470000 M⁻¹ s⁻¹	290000 M⁻¹ s⁻¹	4.11 nM	4.27 nM	3.1 nM					
CC[C@H](C)[C@H](NC(=O)[C@H](N)Cc1ccc(O)cc1)C(=O)N[C@H]1CSSC[C@@H](C(=O)N(C)[C@H](C(N)=O)[C@@H](C)CC)NC(=O)[C@H](CCCNC(=N)N)NC(=O)[C@H](Cc2c[nH]cn2)NC(=O)[C@H](C)NC(=O)CN(C)C(=O)[C@H](Cc2c[nH]c3ccccc23)NC(=O)[C@H](CC(=O)O)NC(=O)[C@H](CCC(N)=O)NC(=O)[C@H](Cc2c[nH]c3ccccc23)NC(=O)[C@H](C(C)C)NC1=O [Cp40 (1MeW)5 W]		200000 M⁻¹ s⁻¹		130000 M⁻¹ s⁻¹	180000 M⁻¹ s⁻¹				150000 M⁻¹ s⁻¹				
CC[C@H](C)[C@H](NC(=O)[C@H](N)Cc1ccc(O)cc1)C(=O)N[C@H]1CSSC[C@@H](C(=O)N(C)[C@H](C(N)=O)[C@@H](C)CC)NC(=O)[C@H](CCCNC(=N)N)NC(=O)[C@H](Cc2c[nH]cn2)NC(=O)[C@H](C)NC(=O)CNC(=O)[C@H](Cc2c[nH]c3ccccc23)NC(=O)[C@H](CC(=O)O)NC(=O)[C@H](CCC(N)=O)NC(=O)[C@H](Cc2cn(C)c3ccccc23)NC(=O)[C@H](C(C)C)NC1=O [Cp40 Sar9G]		900000 ± 400000 M⁻¹ s⁻¹	1.7 ± 0.7 nM	1.29e+06 M⁻¹ s⁻¹	360000 M⁻¹ s⁻¹	0.92 nM	1.39 nM	2.63 nM	1.1e+06 M⁻¹ s⁻¹				
CC[C@H](C)[C@H](NC(=O)[C@H](N)Cc1ccc(O)cc1)C(=O)N[C@H]1CSSC[C@@H](C(=O)N(C)[C@H](C(N)=O)[C@@H](C)CC)NC(=O)[C@H](CCCCN)NC(=O)[C@H](Cc2c[nH]cn2)NC(=O)[C@H](C)NC(=O)CN(C)C(=O)[C@H](Cc2c[nH]c3ccccc23)NC(=O)[C@H](CC(=O)O)NC(=O)[C@H](CCC(N)=O)NC(=O)[C@H](Cc2cn(C)c3ccccc23)NC(=O)[C@H](C(C)C)NC1=O [Cp40 R12K] (H-[dY]ICV[Trp(1-Me)]QDW[Sar]AHKC[NMeI]-NH2; disulfide 3-13)				630000 M⁻¹ s⁻¹	780000 M⁻¹ s⁻¹				470000 M⁻¹ s⁻¹				
CC[C@H](C)[C@H](NC(=O)[C@@H](C)N)C(=O)N[C@H]1CSSC[C@@H](C(=O)N(C)[C@H](C(N)=O)[C@@H](C)CC)NC(=O)[C@H](CCCNC(=N)N)NC(=O)[C@H](Cc2c[nH]cn2)NC(=O)[C@H](C)NC(=O)CN(C)C(=O)[C@H](Cc2c[nH]c3ccccc23)NC(=O)[C@H](CC(=O)O)NC(=O)[C@H](CCC(N)=O)NC(=O)[C@H](Cc2cn(C)c3ccccc23)NC(=O)[C@H](C(C)C)NC1=O [Cp40 y1a]		800000 ± 100000 M⁻¹ s⁻¹	2.9 ± 0.6 nM	840000 M⁻¹ s⁻¹	650000 M⁻¹ s⁻¹	2.19 nM	2.99 nM	3.63 nM	920000 M⁻¹ s⁻¹	2.3 ± 0.4 10^−3 s^−1	1.85 10-3 s-1	2.77 10-3 s-1	2.36 10-3 s-1
CC[C@H](C)[C@H](NC(=O)[C@H](N)Cc1ccc(O)cc1)C(=O)N[C@H]1CSSC[C@@H](C(=O)N(C)[C@H](C(N)=O)[C@@H](C)CC)NC(=O)[C@H](CO)NC(=O)[C@H](Cc2c[nH]cn2)NC(=O)[C@H](C)NC(=O)CN(C)C(=O)[C@H](Cc2c[nH]c3ccccc23)NC(=O)[C@H](CC(=O)O)NC(=O)[C@H](CCC(N)=O)NC(=O)[C@H](Cc2cn(C)c3ccccc23)NC(=O)[C@H](C(C)C)NC1=O [Cp40 R12S] (H-[dY]ICV[Trp(1-Me)]QDW[Sar]AHSC[NMeI]-NH2; disulfide 3-13)		200000 M⁻¹ s⁻¹	9.9 ± 0.5 nM	140000 M⁻¹ s⁻¹	220000 M⁻¹ s⁻¹	10.2 nM	10.3 nM	9.22 nM	180000 M⁻¹ s⁻¹				
CC[C@H](C)[C@H](NC(C)=O)C(=O)N[C@H]1CSSC[C@@H](C(=O)N(C)[C@H](C(N)=O)[C@@H](C)CC)NC(=O)[C@H](CCCNC(=N)N)NC(=O)[C@H](Cc2c[nH]cn2)NC(=O)[C@H](C)NC(=O)CN(C)C(=O)[C@H](Cc2c[nH]c3ccccc23)NC(=O)[C@H](CC(=O)O)NC(=O)[C@H](CCC(N)=O)NC(=O)[C@H](Cc2cn(C)c3ccccc23)NC(=O)[C@H](C(C)C)NC1=O [Cp20, reference compound]		1.3e+06 ± 300000 M⁻¹ s⁻¹	3.4 ± 0.6 nM	1.63e+06 M⁻¹ s⁻¹	960000 M⁻¹ s⁻¹	3.78 nM	2.6 nM	3.76 nM	1.23e+06 M⁻¹ s⁻¹				

Now from value to compound:

kd [1]	kon (pH 7.4, read-out: ka)	Kd [2]	kon [3]	kon [4]	Kd [5]	Kd [6]	Kd [7]	kon [8]	kd (Table 1, amine-reactive immobilized C3b, 25 °C, average±SD of three independent SPR experiments)	kd, Dataset 1 (source data of Table 1, single SPR dataset 1)	kd, Dataset 2 (source data of Table 1, single SPR dataset 2)	kd, Dataset 3 (source data of Table 1, single SPR dataset 3)	SMILES
0.5 ± 0.2 10-3 s-1	200000 M⁻¹ s⁻¹												CCCCn1cc(C[C@@H]2NC(=O)[C@H](C(C)C)NC(=O)[C@@H](NC(=O)[C@@H](NC(=O)[C@H](N)Cc3ccc(O)cc3)[C@@H](C)CC)CSSC[C@@H](C(=O)N(C)[C@H](C(N)=O)[C@@H](C)CC)NC(=O)[C@H](CCCNC(=N)N)NC(=O)[C@H](Cc3c[nH]cn3)NC(=O)[C@H](C)NC(=O)CN(C)C(=O)[C@H](Cc3c[nH]c4ccccc34)NC(=O)[C@H](CC(=O)O)NC(=O)[C@H](CCC(N)=O)NC2=O)c2ccccc21 [1BuW]
1.2 ± 0.3 10-3 s-1	700000 ± 300000 M⁻¹ s⁻¹												CC[C@H](C)[C@H](NC(=O)[C@H](N)Cc1ccc(O)cc1)C(=O)N[C@H]1CSSC[C@@H](C(=O)N(C)[C@H](C(N)=O)[C@@H](C)CC)NC(=O)[C@H](CCCNC(=N)N)NC(=O)[C@H](Cc2c[nH]cn2)NC(=O)[C@H](C)NC(=O)CN(C)C(=O)[C@H](Cc2c[nH]c3ccccc23)NC(=O)[C@H](CC(=O)O)NC(=O)[C@H](CCC(N)=O)NC(=O)[C@H](Cc2cn(CC)c3ccccc23)NC(=O)[C@H](C(C)C)NC1=O [1EtW]
	3e+06 ± 1.6e+06 M⁻¹ s⁻¹		4.23e+06 M⁻¹ s⁻¹	3.53e+06 M⁻¹ s⁻¹				1.11e+06 M⁻¹ s⁻¹					CC[C@H](C)[C@H](NC(=O)[C@H](N)Cc1ccc(O)cc1)C(=O)N[C@H]1CSSC[C@@H](C(=O)N[C@@H](C)C(N)=O)NC(=O)[C@H](CCCNC(=N)N)NC(=O)[C@H](Cc2c[nH]cn2)NC(=O)[C@H](C)NC(=O)CN(C)C(=O)[C@H](Cc2c[nH]c3ccccc23)NC(=O)[C@H](CC(=O)O)NC(=O)[C@H](CCC(N)=O)NC(=O)[C@H](Cc2cn(C)c3ccccc23)NC(=O)[C@H](C(C)C)NC1=O [Cp40 mI14A] (H-[dY]ICV[Trp(1-Me)]QDW[Sar]AHRCA-NH2; disulfide 3-13)
	1.5e+06 ± 200000 M⁻¹ s⁻¹		1.41e+06 M⁻¹ s⁻¹	1.8e+06 M⁻¹ s⁻¹				1.28e+06 M⁻¹ s⁻¹					CC[C@H](C)[C@H](NC(=O)[C@H](N)Cc1ccc(O)cc1)C(=O)N[C@H]1CSSC[C@@H](C(N)=O)NC(=O)[C@H](CCCNC(=N)N)NC(=O)[C@H](Cc2c[nH]cn2)NC(=O)[C@H](C)NC(=O)CN(C)C(=O)[C@H](Cc2c[nH]c3ccccc23)NC(=O)[C@H](CC(=O)O)NC(=O)[C@H](CCC(N)=O)NC(=O)[C@H](Cc2cn(C)c3ccccc23)NC(=O)[C@H](C(C)C)NC1=O [Cp40 ΔmI14] (H-[dY]ICV[Trp(1-Me)]QDW[Sar]AHRC-NH2; disulfide 3-13)
	900000 ± 200000 M⁻¹ s⁻¹		1.17e+06 M⁻¹ s⁻¹	730000 M⁻¹ s⁻¹				650000 M⁻¹ s⁻¹					CC[C@H](C)[C@H](NC(=O)[C@H](N)Cc1ccc(O)cc1)C(=O)N[C@H]1CSSC[C@@H](C(=O)N(C)[C@H](C(N)=O)[C@@H](C)CC)NC(=O)[C@H](CCCNC(=N)N)NC(=O)[C@H](Cc2c[nH]cn2)NC(=O)[C@H](C)NC(=O)CN(C)C(=O)[C@H](Cc2c[nH]c3ccccc23)NC(=O)[C@H](CCC(=O)O)NC(=O)[C@H](CCC(N)=O)NC(=O)[C@H](Cc2cn(C)c3ccccc23)NC(=O)[C@H](C(C)C)NC1=O [Cp40 D7E] (H-[dY]ICV[Trp(1-Me)]QEW[Sar]AHRC[NMeI]-NH2; disulfide 3-13)

From article PMC9488889, “Insight into mode-of-action and structural determinants of the compstatin family of clinical complement inhibitors” (Nature Communications, 2022)
